# From US10183015B2, “Heterocyclic compounds and methods of use” (Medivation Technologies LLC, priority 2015, dated 2019)
# Where “and” joins values, the source holds several entries; their conditions need not be identical. Identical values can stand only once.
# Assays:
# PERK = experiment: DIN mouse model: hepatic PERK gene expression; format: in vivo; conditions: liver, 20 mg/kg group
# Method: (§1) Gene expression analysis. Hepatic expression levels of genes involved in lipid metabolism (FAS, SREBP1, ACC1, SCD1), cholesterol metabolism (HMG-CoAR, LDLR), SREBP proteolysis (SCAP, INSIG1), ER stress (PERK), oxidative stress (NRF2), inflammation (MCP-1), and fibrosis (collagen 1α1) were quantified by RTqPCR. Expression level was normalized to 18S gene expression and relative expression to vehicle group was calculated with the […] method.
# Male C57Bl/6J mice (8 weeks old) were housed in enriched ventilated cages (31×12.5×12.7 cm) throughout the experimental phase. Animals' cages litters were changed at least once a week. Animal were housed 5 per cage on inverted 12-hour light cycle (at 09:00 am lights off), 22±2° C. and 55±10% relative humidity. The acclimation period was 20 days. During the acclimation period, all mice were fed a standard diet (RM1 (E) 801492, SDS) and tap water ad libitum. After the acclimation period, mice were fed with the DIN diet (60% fat, cholesterol enriched) and fructose-enriched tap water ad libitum until the end of the experiment.
# At 6 weeks of diet, mice were 4-hour fasted (09:00 am to 1:00 pm) and blood (150 μl/EDTA) was collected at 01:00 pm by retro-orbital bleeding under isoflurane anesthesia. Mice were then allocated in 2 homogenous groups (n=12/group) according to their plasma levels of ALT (average levels: 685U/L), AST (average levels: 627U/L) and HOMA-IR index (average value: 4.7), into 2 homogenous groups (see values at day 0 in Tables 15A and 15B ALT/AST and Tables 16A and 16B for HOMA-IR). Mice were then treated once daily by oral gavage with vehicle (Group 1) or Compound #37 at 20 mg/kg (Group 2) for 70 days.
# Hepatic expression levels of genes involved in lipid (FAS, SREBP1, ACC1, SCD1), cholesterol metabolism (HMG-CoAR, LDLR), in SREBP proteolysis (SCAP, INSIG1), in ER stress (PERK), oxidative stress (NRF2), and inflammation (MCP-1) were not changed. However, expression of collagen 1α1, involved in liver fibrosis, was reduced by 66% in mice treated with Compound #37 (p<0.05 vs. vehicle).
# ob/ob mice = experiment: ob/ob mice: plasma triglycerides, non-esterified fatty acids, total cholesterol, insulin; format: in vivo, mouse; conditions: 8 weeks
# Method: Groups of mice were either untreated (group 1) or treated for 8 weeks with vehicle (group 2), or with Compound #37 at 5 mg/kg (group 3), 10 mg/kg (group 4), or 20 mg/kg (group 5). Treatment was daily by oral gavage in vehicle (20% HPβCD). Values are presented as mean±standard error of the mean (sem). A t test was performed to compare the untreated group and the vehicle group. Then Compound #37-treated groups were compared to the vehicle-treated group with a 1-way ANOVA+Dunnett's post-test. […] For each test, a p<0.05 was considered significant. Of note, animal #39, group 1 was excluded from the statistical analysis, due to low values for all parameters measured. Some other values were considered as out-liners and excluded from the statistical analysis when the value was far below the mean minus 2 SD. Excluded values are marked with an asterisk in Tables 21-23.
# NRF2 = experiment: Short-term Paigen-diet NASH mouse model: hepatic NRF2 gene expression (RT-qPCR); format: in vivo; parameters: key to ER and oxidative stress gene expression NRF2: Dct: Ct of gene minus Ct of 18S reference; key to ER and oxidative stress gene expression NRF2: 2DDct: expression relative to vehicle group, normalized to 18S (2^-ΔΔCt); conditions: 21 days
# Method: To investigate whether Compound #37 prevents the development of pathology associated with NASH and steatosis in an acute exploratory disease model, a study was conducted using a diet-induced acute liver steatosis model in mice. As described below, in this study, C57BL/6J mice were initiated on the Paigen diet and simultaneously treated with Compound #37 (5, 20, and 40 mg/kg/day) or vehicle control (20% HPβCD 10 mL/kg/day) by oral gavage for 21 days.
# After acclimation, 8-week old male C57Bl/6J mice (Charles River) weighing about 25 g were randomized in 4 groups according their body weight and treated once daily around noon by oral gavage with vehicle, or Compound #37 at various for 21 days as follows: Group 1: vehicle-20% (2-hydroxypropyl)-β-cyclodextrin (HP-β-CD) (n=10); Group 2: Compound #37, 5 mg/kg ([…]) Group 4: Compound #37, 40 mg/kg (n=10). During the treatment period, body weight and food intake (measured over 24h) were measured 3 times per week and once a week, respectively. During the acclimation, all mice were fed a standard diet (Special Diets Services RM1 (E), product no. 801492) and tap water ad libitum. After the acclimation period, mice were fed until the end of the experiment with a 60% high fat Paigen diet (60 kcal % fat, 1.25% cholesterol, and 0.5% cholate; D11061901, Research Diet) and tap water ad libitum.
# as §1
# [1] = individual animals, vs vehicle mean, 20 mg/kg
# [2] = 5 mg/kg daily oral gavage, group mean
# [3] = 5 mg/kg daily oral gavage, individual animal values, 5 mg/kg
# [4] = 10 mg/kg daily oral gavage, group mean
# [5] = 10 mg/kg daily oral gavage, individual animal values, 10 mg/kg
# [6] = 20 mg/kg daily oral gavage, group mean
# [7] = 20 mg/kg daily oral gavage, individual animal values, 20 mg/kg
smiles,measurement,setting,value
"CC(C)Cc1cc(-c2nc(-c3ccc(NS(=O)(=O)C(F)(F)F)cc3Cl)cs2)ccn1 [Compound 37, N-(3-chloro-4-(2-(2-isobutylpyridin-4-yl)thiazol-4-yl)phenyl)-1,1,1-trifluoromethanesulfonamide]",PERK Dct,"PERK; individual animals, normalised to 18S, 20 mg/kg",14.23 and 14.41 and 16.11 and 14.89 and 14.95 and 14.18 and 14.85 and 14.3 and 15.75 and 16.07 and 12.9
same,PERK 2^DDct,PERK; [1],1.2 and 1.06 and 0.33 and 0.76 and 0.73 and 1.24 and 0.78 and 1.15 and 0.42 and 0.34 and 3.02
same,PERK DDct,PERK; [1],−0.27 and −0.09 and 1.61 and 0.39 and 0.45 and −0.32 and 0.35 and −0.2 and 1.25 and 1.57 and −1.6
same,PERK (Ct),"PERK; individual animals, 20 mg/kg",26.78 and 26.96 and 28.95 and 27.32 and 27.3 and 26.77 and 26.58 and 26.81 and 27.25 and 27.62 and 25.25
same,PERK 2^DDct,"PERK; mean, n 11",1.00
same,PERK (Ct),"PERK; mean, n 11",27.1
same,PERK DDct,"PERK; mean, n 11",0.29
same,PERK Dct,"PERK; mean, n 11",14.8
same,plasma insulin,ob/ob mice; [2],274.1 μU/mL
same,plasma non-esterified fatty acids,ob/ob mice; [2],0.7 mM
same,plasma total cholesterol,ob/ob mice; [2],1.8 g/L
same,plasma triglycerides,ob/ob mice; [2],1.6 g/L
same,plasma insulin,"ob/ob mice; 5 mg/kg daily oral gavage, individual animal values (* = excluded from statistical analysis), 5 mg/kg",198.7 μU/mL and 262.7 μU/mL and 181.1 μU/mL and 250.5 μU/mL and 118.7 μU/mL and 394.6 μU/mL and 24.6* μU/mL and 374.6 μU/mL and 512.6 μU/mL and 173.1 μU/mL
same,plasma non-esterified fatty acids,ob/ob mice; [3],1.028 mM and 0.77 mM and 0.616 mM and 0.552 mM and 0.68 mM (2×) and 1.092 mM and 0.783 mM and 0.655 mM and 0.539 mM
same,plasma total cholesterol,ob/ob mice; [3],1.587 g/L and 1.903 g/L and 1.916 g/L and 1.853 g/L and 2.017 g/L and 1.537 g/L and 2.08 g/L and 1.625 g/L and 1.347 g/L and 1.638 g/L
same,plasma triglycerides,ob/ob mice; [3],1.283 g/L and 1.152 g/L and 1.038 g/L and 1.397 g/L (2×) and 1.593 g/L and 1.201 g/L and 1.609 g/L and 2.408 g/L and 2.504 g/L
same,plasma insulin,ob/ob mice; [4],357.3 μU/mL
same,plasma non-esterified fatty acids,ob/ob mice; [4],0.7 mM
same,plasma total cholesterol,ob/ob mice; [4],1.7 g/L
same,plasma triglycerides,ob/ob mice; [4],1.3 g/L
same,plasma insulin,ob/ob mice; [5],123.8 μU/mL and 457.7 μU/mL and 81.9 μU/mL and 949.0 μU/mL and 153.3 μU/mL and 62.6 μU/mL and 508.2 μU/mL and 904.4 μU/mL and 194.4 μU/mL and 137.5 μU/mL
same,plasma non-esterified fatty acids,ob/ob mice; [5],1.009 mM and 0.474 mM and 0.828 mM and 0.7 mM and 0.564 mM and 0.951 mM and 0.738 mM and 0.661 mM and 0.809 mM and 0.307 mM
same,plasma total cholesterol,ob/ob mice; [5],1.587 g/L and 1.865 g/L (2×) and 1.891 g/L (2×) and 1.827 g/L (2×) and 1.234 g/L and 1.651 g/L and 1.183 g/L
same,plasma triglycerides,ob/ob mice; [5],0.94 g/L and 1.12 g/L and 0.875 g/L and 1.218 g/L and 1.528 g/L and 1.299 g/L and 1.968 g/L and 1.381 g/L and 1.593 g/L and 0.777 g/L
same,plasma insulin,ob/ob mice; [6],444.1 μU/mL
same,plasma non-esterified fatty acids,ob/ob mice; [6],0.5 mM
same,plasma total cholesterol,ob/ob mice; [6],1.5 g/L
same,plasma triglycerides,ob/ob mice; [6],1.5 g/L
same,plasma insulin,ob/ob mice; [7],447.3 μU/mL and 10.5 μU/mL and 730.1 μU/mL and 505.0 μU/mL and 254.3 μU/mL and 881.0 μU/mL and 810.7 μU/mL and 483.7 μU/mL and 62.6 μU/mL and 256.2 μU/mL
same,plasma non-esterified fatty acids,ob/ob mice; [7],0.429 mM and 0.642 mM and 0.494 mM and 0.481 mM and 0.423 mM (2×) and 0.513 mM and 0.397 mM and 0.687 mM and 0.597 mM
same,plasma total cholesterol,ob/ob mice; [7],1.234 g/L and 0.893 g/L and 1.499 g/L and 1.714 g/L and 1.663 g/L (2×) and 1.625 g/L and 1.587 g/L and 1.36 g/L and 1.272 g/L
same,plasma triglycerides,ob/ob mice; [7],0.875 g/L and 1.886 g/L and 1.511 g/L (2×) and 1.642 g/L and 1.854 g/L and 1.283 g/L and 1.308 g/L and 1.381 g/L and 1.968 g/L
same,ER and oxidative stress gene expression NRF2: 2DDct,"NRF2; 5 mg/kg, group mean, n 10",0.76
same,ER and oxidative stress gene expression NRF2: 18S,"NRF2; 5 mg/kg, group mean, n 10",12.3
same,ER and oxidative stress gene expression NRF2: DDct,"NRF2; 5 mg/kg, group mean, n 10",0.57
same,ER and oxidative stress gene expression NRF2: Dct,"NRF2; 5 mg/kg, group mean, n 10",11.5
same,ER and oxidative stress gene expression NRF2: NRF2,"NRF2; 5 mg/kg, group mean, n 10",23.8
same,ER and oxidative stress gene expression NRF2: 2DDct,"NRF2; 5 mg/kg, individual animals",0.76 and 0.49 and 0.57 and 1.91 and 0.32 and 0.4 and 0.82 and 1.02 and 0.67 and 0.68
same,ER and oxidative stress gene expression NRF2: 18S,"NRF2; 5 mg/kg, individual animals",13.46 and 13.11 and 11.61 and 13.35 (2×) and 12.03 and 11.6 and 11.79 and 11.14 and 11.12
same,ER and oxidative stress gene expression NRF2: DDct,"NRF2; 5 mg/kg, individual animals",0.4 and 1.02 and 0.81 and −0.93 and 1.66 and 1.32 and 0.29 and −0.03 and 0.58 and 0.56
same,ER and oxidative stress gene expression NRF2: Dct,"NRF2; 5 mg/kg, individual animals",11.34 and 11.96 and 11.75 and 10.01 and 12.6 and 12.26 and 11.23 and 10.91 and 11.52 and 11.5
same,ER and oxidative stress gene expression NRF2: NRF2,"NRF2; 5 mg/kg, individual animals",24.8 and 25.07 and 23.36 (2×) and 24.63 and 25.61 and 22.83 and 22.7 and 22.66 and 22.62
same,ER and oxidative stress gene expression NRF2: 2DDct,"NRF2; 20 mg/kg, group mean, n 6",1.08
same,ER and oxidative stress gene expression NRF2: 18S,"NRF2; 20 mg/kg, group mean, n 6",12.2
same,ER and oxidative stress gene expression NRF2: DDct,"NRF2; 20 mg/kg, group mean, n 6",0.03
same,ER and oxidative stress gene expression NRF2: Dct,"NRF2; 20 mg/kg, group mean, n 6",11
same,ER and oxidative stress gene expression NRF2: NRF2,"NRF2; 20 mg/kg, group mean, n 6",23.2
same,ER and oxidative stress gene expression NRF2: 2DDct,"NRF2; 20 mg/kg, individual animals",0.76 (2×) and 0.91 and 2.23 and 0.65 and 1.13
same,ER and oxidative stress gene expression NRF2: 18S,"NRF2; 20 mg/kg, individual animals",12.91 and 12.29 and 12.2 and 13.03 and 11.49 and 11.26
same,ER and oxidative stress gene expression NRF2: DDct,"NRF2; 20 mg/kg, individual animals",0.39 and 0.4 and 0.13 and −1.16 and 0.62 and −0.18
same,ER and oxidative stress gene expression NRF2: Dct,"NRF2; 20 mg/kg, individual animals",11.33 and 11.34 and 11.07 and 9.78 and 11.56 and 10.76
same,ER and oxidative stress gene expression NRF2: NRF2,"NRF2; 20 mg/kg, individual animals",24.24 and 23.63 and 23.27 and 22.81 and 23.05 and 22.02
